Key:
Test in all cases: relative viability (nuclei count vs DMSO), 5 days (fraction); higher = more cells survive
Cediranib + Luminespib = compound: COc1cc2c(Oc3ccc4[nH]c(C)cc4c3F)ncnc2cc1OCCCN1CCCC1 [Cediranib] + CCNC(=O)c1noc(-c2cc(C(C)C)c(O)cc2O)c1-c1ccc(CN2CCOCC2)cc1 [Luminespib] (partner 0.01 µM)
How it was run: (§1)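 For relative viability, nuclei counts in treated wells were divided by those in vehicle wells. Lung cancer cell lines had been pin-tool dosed in 1536-well plates the day after seeding and cultured for 5 days, then fixed and stained in one step (final 0.05% Triton X-100, 1% formaldehyde, 1 ug/ml Hoechst) and imaged at 4×. Doses were one drug alone or a fixed anchor-drug dose plus five library-drug doses (not always all listed) in √10 steps, and values are duplicate-plate medians.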

Cediranib + Pemetrexed = compound: COc1cc2c(Oc3ccc4[nH]c(C)cc4c3F)ncnc2cc1OCCCN1CCCC1 [Cediranib] + Nc1nc2[nH]cc(CCc3ccc(C(=O)N[C@@H](CCC(=O)O)C(=O)O)cc3)c2c(=O)[nH]1 [Pemetrexed] (partner 0.2 µM)
How it was run: as §1

Decitabine + Bortezomib = compound: Nc1ncn([C@H]2C[C@H](O)[C@@H](CO)O2)c(=O)n1 [Decitabine] + CC(C)C[C@H](NC(=O)[C@H](Cc1ccccc1)NC(=O)c1cnccn1)B(O)O [Bortezomib] (partner 0.002 µM)
How it was run: as §1

[1] = compound: O=C(C[C@H]1NCCC[C@@H]1O)Cn1cnc2cc(Br)c(Cl)cc2c1=O (racemic) [Halofuginone] + CC1(C)CCC(c2ccc(Cl)cc2)=C(CN2CCN(c3ccc(C(=O)NS(=O)(=O)c4ccc(N[C@H](CCN5CCOCC5)CSc5ccccc5)c(S(=O)(=O)C(F)(F)F)c4)cc3)CC2)C1 [Navitoclax] (partner 0.5 µM)
How it was run: as §1

In the case of 201T, the relative viability (Cediranib + Luminespib; first compound 0.04 µM) is reported as 1.2, the relative viability (Cediranib + Luminespib; first compound 0.1265 µM) is reported as 1.34 and the relative viability (Cediranib + Luminespib; first compound 0.4 µM) is reported as 1. The relative viability (Cediranib + Luminespib; first compound 1.265 µM) was 1.03, the relative viability (Cediranib + Luminespib; first compound 4 µM) was 1.03 and the relative viability (Cediranib + Pemetrexed; first compound 0.04 µM) was 0.344. The relative viability (Cediranib + Pemetrexed; first compound 0.1265 µM) was 0.314, the relative viability (Cediranib + Pemetrexed; first compound 0.4 µM) was 0.327 and the relative viability (Cediranib + Pemetrexed; first compound 1.265 µM) was 0.359. The relative viability (Cediranib + Pemetrexed; first compound 4 µM) was 0.355, the relative viability (Decitabine + Bortezomib; first compound 0.04 µM) was 1.11 and the relative viability (Decitabine + Bortezomib; first compound 0.1265 µM) was 1.09. It also gave a relative viability (Decitabine + Bortezomib; first compound 0.4 µM) of 1.15, a relative viability (Decitabine + Bortezomib; first compound 1.265 µM) of 1 and a relative viability (Decitabine + Bortezomib; first compound 4 µM) of 1.03. The relative viability ([1]; first compound 0.001 µM) was 1.22, the relative viability ([1]; first compound 0.003162 µM) was 1.15 and the relative viability ([1]; first compound 0.01 µM) was 1.24. It also gave a relative viability ([1]; first compound 0.03162 µM) of 1.13 and a relative viability ([1]; first compound 0.1 µM) of 1.28.
A549 showed a relative viability ([1]; first compound 0.001 µM) of 1.33, a relative viability ([1]; first compound 0.003162 µM) of 1.27 and a relative viability ([1]; first compound 0.01 µM) of 1.02. It also gave a relative viability ([1]; first compound 0.03162 µM) of 0.676 and a relative viability ([1]; first compound 0.1 µM) of 0.0879.
A-427 was tested, and the relative viability (Cediranib + Luminespib; first compound 0.04 µM) was 1.25, the relative viability (Cediranib + Luminespib; first compound 0.4 µM) was 0.84 and the relative viability (Cediranib + Luminespib; first compound 1.265 µM) was 0.906. The relative viability (Cediranib + Luminespib; first compound 4 µM) was 0.928, the relative viability (Cediranib + Pemetrexed; first compound 0.04 µM) was 0.921 and the relative viability (Cediranib + Pemetrexed; first compound 0.4 µM) was 0.955. It also gave a relative viability (Cediranib + Pemetrexed; first compound 1.265 µM) of 0.962, a relative viability (Cediranib + Pemetrexed; first compound 4 µM) of 1.08 and a relative viability (Decitabine + Bortezomib; first compound 0.04 µM) of 0.769. It also gave a relative viability (Decitabine + Bortezomib; first compound 0.1265 µM) of 0.571, a relative viability (Decitabine + Bortezomib; first compound 0.4 µM) of 0.247 and a relative viability (Decitabine + Bortezomib; first compound 1.265 µM) of 0.271. It also gave a relative viability (Decitabine + Bortezomib; first compound 4 µM) of 0.242, a relative viability ([1]; first compound 0.001 µM) of 1.08 and a relative viability ([1]; first compound 0.003162 µM) of 0.984. It also gave a relative viability ([1]; first compound 0.01 µM) of 0.903, a relative viability ([1]; first compound 0.03162 µM) of 0.898 and a relative viability ([1]; first compound 0.1 µM) of 0.946.
ABC-1 was tested, and the relative viability (Cediranib + Luminespib; first compound 0.04 µM) was 0.885, the relative viability (Cediranib + Luminespib; first compound 0.1265 µM) was 0.714 and the relative viability (Cediranib + Luminespib; first compound 1.265 µM) was 0.44. It also gave a relative viability (Cediranib + Luminespib; first compound 4 µM) of 0.486, a relative viability (Decitabine + Bortezomib; first compound 0.04 µM) of 0.286 and a relative viability (Decitabine + Bortezomib; first compound 0.1265 µM) of 0.239. The relative viability (Decitabine + Bortezomib; first compound 0.4 µM) was 0.315, the relative viability (Decitabine + Bortezomib; first compound 1.265 µM) was 0.23 and the relative viability (Decitabine + Bortezomib; first compound 4 µM) was 0.228.
In the case of BEN, the relative viability (Cediranib + Luminespib; first compound 0.04 µM) is reported as 0.379, the relative viability (Cediranib + Luminespib; first compound 0.4 µM) is reported as 0.338 and the relative viability (Cediranib + Luminespib; first compound 1.265 µM) is reported as 0.201. For the same cell line, the relative viability (Cediranib + Luminespib; first compound 4 µM) was 0.381, the relative viability (Cediranib + Pemetrexed; first compound 0.04 µM) was 0.921 and the relative viability (Cediranib + Pemetrexed; first compound 0.1265 µM) was 0.549. For the same cell line, the relative viability (Cediranib + Pemetrexed; first compound 0.4 µM) was 0.693, the relative viability (Cediranib + Pemetrexed; first compound 1.265 µM) was 0.501 and the relative viability (Cediranib + Pemetrexed; first compound 4 µM) was 0.786. For the same cell line, the relative viability (Decitabine + Bortezomib; first compound 0.04 µM) was 0.779, the relative viability (Decitabine + Bortezomib; first compound 0.1265 µM) was 0.779 and the relative viability (Decitabine + Bortezomib; first compound 0.4 µM) was 0.539. For the same cell line, the relative viability (Decitabine + Bortezomib; first compound 1.265 µM) was 0.427, the relative viability (Decitabine + Bortezomib; first compound 4 µM) was 0.481 and the relative viability ([1]; first compound 0.001 µM) was 0.0684. The relative viability ([1]; first compound 0.003162 µM) was 0.132, the relative viability ([1]; first compound 0.01 µM) was 0.0701 and the relative viability ([1]; first compound 0.03162 µM) was 0.0526. The relative viability ([1]; first compound 0.1 µM) was 0.0549.
Cell Line CAL-12T has a relative viability (Cediranib + Luminespib; first compound 0.04 µM) of 0.242, a relative viability (Cediranib + Luminespib; first compound 0.1265 µM) of 0.369 and a relative viability (Cediranib + Luminespib; first compound 0.4 µM) of 0.364. For the same cell line, the relative viability (Cediranib + Luminespib; first compound 1.265 µM) was 0.359, the relative viability (Cediranib + Luminespib; first compound 4 µM) was 0.361 and the relative viability (Cediranib + Pemetrexed; first compound 0.04 µM) was 1.03. It also gave a relative viability (Cediranib + Pemetrexed; first compound 0.1265 µM) of 1.29, a relative viability (Cediranib + Pemetrexed; first compound 0.4 µM) of 1.14 and a relative viability (Cediranib + Pemetrexed; first compound 1.265 µM) of 1.13. It also gave a relative viability (Cediranib + Pemetrexed; first compound 4 µM) of 1.03, a relative viability (Decitabine + Bortezomib; first compound 0.04 µM) of 0.828 and a relative viability (Decitabine + Bortezomib; first compound 0.1265 µM) of 1.01. For the same cell line, the relative viability (Decitabine + Bortezomib; first compound 0.4 µM) was 0.535, the relative viability (Decitabine + Bortezomib; first compound 1.265 µM) was 0.558 and the relative viability (Decitabine + Bortezomib; first compound 4 µM) was 0.543. It also gave a relative viability ([1]; first compound 0.001 µM) of 1.54, a relative viability ([1]; first compound 0.003162 µM) of 1.37 and a relative viability ([1]; first compound 0.01 µM) of 1.24. The relative viability ([1]; first compound 0.03162 µM) was 0.974 and the relative viability ([1]; first compound 0.1 µM) was 0.565.
COR-L23 gave a relative viability (Cediranib + Luminespib; first compound 0.04 µM) of 0.778, a relative viability (Cediranib + Luminespib; first compound 0.1265 µM) of 0.768 and a relative viability (Cediranib + Luminespib; first compound 0.4 µM) of 0.58. The relative viability (Cediranib + Luminespib; first compound 1.265 µM) was 0.571, the relative viability (Cediranib + Luminespib; first compound 4 µM) was 0.626 and the relative viability (Cediranib + Pemetrexed; first compound 0.04 µM) was 0.203. The relative viability (Cediranib + Pemetrexed; first compound 0.1265 µM) was 0.209, the relative viability (Cediranib + Pemetrexed; first compound 0.4 µM) was 0.2 and the relative viability (Cediranib + Pemetrexed; first compound 1.265 µM) was 0.214. For the same cell line, the relative viability (Cediranib + Pemetrexed; first compound 4 µM) was 0.202, the relative viability (Decitabine + Bortezomib; first compound 0.04 µM) was 0.695 and the relative viability (Decitabine + Bortezomib; first compound 0.1265 µM) was 0.703. It also gave a relative viability (Decitabine + Bortezomib; first compound 0.4 µM) of 0.42, a relative viability (Decitabine + Bortezomib; first compound 1.265 µM) of 0.316 and a relative viability (Decitabine + Bortezomib; first compound 4 µM) of 0.234. The relative viability ([1]; first compound 0.001 µM) was 1.03, the relative viability ([1]; first compound 0.003162 µM) was 1.1 and the relative viability ([1]; first compound 0.01 µM) was 1.03. It also gave a relative viability ([1]; first compound 0.03162 µM) of 0.976 and a relative viability ([1]; first compound 0.1 µM) of 0.126.
In the case of COR-L 105, the relative viability (Cediranib + Luminespib; first compound 0.04 µM) is reported as 0.706, the relative viability (Cediranib + Luminespib; first compound 0.1265 µM) is reported as 0.726 and the relative viability (Cediranib + Luminespib; first compound 0.4 µM) is reported as 0.731. The relative viability (Cediranib + Luminespib; first compound 1.265 µM) was 0.864, the relative viability (Cediranib + Luminespib; first compound 4 µM) was 0.68 and the relative viability (Cediranib + Pemetrexed; first compound 0.04 µM) was 1.11. The relative viability (Cediranib + Pemetrexed; first compound 0.1265 µM) was 1.08, the relative viability (Cediranib + Pemetrexed; first compound 0.4 µM) was 1.06 and the relative viability (Cediranib + Pemetrexed; first compound 1.265 µM) was 1.08. It also gave a relative viability (Cediranib + Pemetrexed; first compound 4 µM) of 1.15, a relative viability (Decitabine + Bortezomib; first compound 0.04 µM) of 0.463 and a relative viability (Decitabine + Bortezomib; first compound 0.1265 µM) of 0.65. The relative viability (Decitabine + Bortezomib; first compound 0.4 µM) was 0.378, the relative viability (Decitabine + Bortezomib; first compound 1.265 µM) was 0.494 and the relative viability (Decitabine + Bortezomib; first compound 4 µM) was 0.422. The relative viability ([1]; first compound 0.001 µM) was 0.939, the relative viability ([1]; first compound 0.003162 µM) was 0.396 and the relative viability ([1]; first compound 0.01 µM) was 0.733. It also gave a relative viability ([1]; first compound 0.03162 µM) of 0.595 and a relative viability ([1]; first compound 0.1 µM) of 0.46.
In the case of Calu-6, the relative viability (Decitabine + Bortezomib; first compound 0.04 µM) is reported as 0.853, the relative viability (Decitabine + Bortezomib; first compound 0.1265 µM) is reported as 0.67 and the relative viability (Decitabine + Bortezomib; first compound 0.4 µM) is reported as 0.43. The relative viability (Decitabine + Bortezomib; first compound 1.265 µM) was 0.373, the relative viability (Decitabine + Bortezomib; first compound 4 µM) was 0.321 and the relative viability ([1]; first compound 0.001 µM) was 0.896. It also gave a relative viability ([1]; first compound 0.003162 µM) of 0.956, a relative viability ([1]; first compound 0.01 µM) of 0.884 and a relative viability ([1]; first compound 0.03162 µM) of 0.258. The relative viability ([1]; first compound 0.1 µM) was 0.092.
Cell Line ChaGo-K-1 has a relative viability (Cediranib + Luminespib; first compound 0.04 µM) of 0.588, a relative viability (Cediranib + Luminespib; first compound 0.1265 µM) of 0.621 and a relative viability (Cediranib + Luminespib; first compound 0.4 µM) of 0.525. The relative viability (Cediranib + Luminespib; first compound 1.265 µM) was 0.638, the relative viability (Cediranib + Luminespib; first compound 4 µM) was 0.738 and the relative viability (Cediranib + Pemetrexed; first compound 0.04 µM) was 0.262. It also gave a relative viability (Cediranib + Pemetrexed; first compound 0.1265 µM) of 0.261, a relative viability (Cediranib + Pemetrexed; first compound 0.4 µM) of 0.297 and a relative viability (Cediranib + Pemetrexed; first compound 1.265 µM) of 0.252. It also gave a relative viability (Cediranib + Pemetrexed; first compound 4 µM) of 0.263, a relative viability (Decitabine + Bortezomib; first compound 0.04 µM) of 0.768 and a relative viability (Decitabine + Bortezomib; first compound 0.1265 µM) of 0.756. For the same cell line, the relative viability (Decitabine + Bortezomib; first compound 0.4 µM) was 0.579, the relative viability (Decitabine + Bortezomib; first compound 1.265 µM) was 0.585 and the relative viability (Decitabine + Bortezomib; first compound 4 µM) was 0.566. The relative viability ([1]; first compound 0.001 µM) was 0.88, the relative viability ([1]; first compound 0.003162 µM) was 0.587 and the relative viability ([1]; first compound 0.01 µM) was 1.01. It also gave a relative viability ([1]; first compound 0.03162 µM) of 0.859 and a relative viability ([1]; first compound 0.1 µM) of 0.975.
